Numbers after ± are expanded uncertainties.

By mass density is commonly meant the mass of a sample divided by its volume.

The conditions of this series: for mass density: 298 K, 101.33 kPa, X-ray diffraction; for Triple point temperature: DSC.

Regarding `[Ag+].[Ag+].[Ag+].[Ag+].[I-].[I-].[I-].[I-].[I-].[Rb+]` [rubidium silver iodide (Ag4RbI5)], the mass density (Crystal) is 5389 ± 2 kg/m3.
In the case of `[Ag+].[Ag+].[Te-2]` [silver(I) telluride], for the setting “Crystal 3”, the mass density was 8321 ± 2 kg/m3 and the Triple point temperature is 418 ± 4 K. Also, the Normal melting temperature (Crystal 1, DTA) turned out to be 962 ± 4 °C. Further, the Triple point temperature (Crystal 2) is recorded as 1075 ± 4 K.
